Measurements from patent US10532085B2, “Methods for increasing intracellular activity of Hsp70” (Orphazyme A/S, priority 2010, dated 2020).

Columns and labels:
[1] = tested on: MEFs; type: cell-based
Experimental: (§1) BMP binds ASM with high affinity and stimulates its ability to hydrolyze sphingomyelin to ceramide and phosphorylcholine. […] In order to test whether ASM is responsible for the lysosome stabilizing effect we treated the cells with desipramine, a well characterized pharmacological ASM inhibitor. […] It should be noted that akin to rHsp70, also rASM localized to the lysosomes.
Cell density was assessed by the 3-(4,5-dimethylthiazole-2-y)-2,5-[…] (MTT, SIGMA-Aldrich) reduction assay essentially as described in the art. Apoptosis-like cell death was assessed by staining the cells with 0.05 μg/ml Hoechst 33342 (Molecular Probes) and counting cells with condensed nuclei in an inverted Olympus IX-70 fluorescent Microscope (Filter U-MWU 330-385 nm). For each experiment a minimum of eight randomly chosen areas were counted.

[2] = tested on: MEFs; type: cell-based; remark: listed apart in the source
Experimental: as §1
The total and cytoplasmic (digitonin-extracted) cathepsin activities were measured in digitonin-treated samples using zFR-AFC (Enzyme System Products) probe as described in the art.

[3] = tested on: Hsp70-MEFs; experiment: Lysosomal membrane integrity upon photo-oxidation in Hsp70-MEFs; type: cell-based, murine; details: subtoxic concentration
Experimental: as §1
(§2) Sub-confluent cells incubated with 2 μg/ml acridine orange for 15 min at 37° C. were washed, irradiated and analyzed in Hanks balanced salt solution complemented with 3% fetal calf serum. Cells for single cell imaging were selected from 8 pre-defined areas of each well in transmitted light-mode after which the same cells were immediately visualized and exposed to blue light from USH102 100W mercury arc burner (Ushio electric) installed in a U-ULS100HG housing (Olympus) for 20 sec. Fluorescence microscopy was performed on Olympus IX-70 inverted microscope with a LCPlanF1 ×20 objective with NA=0.40. Loss of lysosomal pH gradient was quantified by counting the loss of intense red staining. A more elaborate method for assaying lysosomal integrity was developed to handle the larger lysosomal compartment of the various fibroblasts used in this study. […] The resulting timelapse movies where subsequently analysed by the integrated Zeiss LSM DUO software.

[4] = tested on: U-2-OS cells; experiment: Lysosomal integrity upon photo-oxidation (acridine orange and blue light); type: cell-based, Human; details: recombinant proteins 300 nM, 24 h
Experimental: FIG. 2: Lysosomal Hsp70 stabilizes lysosomal membranes. (a) Representative confocal images of U-2-OS cells incubated with 300 nM rHsp70-AF488 (green) for 24 h, fixed and stained for lysosomal integral membrane protein-1 (LIMP-1; red). For co-localization with other organelle markers see FIG. 3. (b) U-2-OS cells were incubated with 300 nM rHsp70-AF488 for 24 h before quantification of rHsp70-AF488 in membranes (memb.) and supernatant (sup.) obtained by repeated freeze/thaw cycles and centrifugation the light membrane fraction (LMF). […] (c) Representative still images of U-2-OS cells exposed to photo-oxidation (acridine orange and blue light). The loss of lysosomal integrity is visualized by the loss of red and increase in green staining. (d and e) U-2-OS cells were incubated with indicated recombinant proteins (300 nM) for 24 h, and analyzed for lysosomal integrity upon photo-oxidation. When indicated, cells were treated with indicated siRNAs for 48 h prior to the addition of recombinant proteins (e). The values represent means±SD (standard deviation) for three (d) or five (e) independent experiments. Representative immunoblots of indicated proteins from U-2-OS cells left untreated or treated with control or Hsp70 siRNAs are shown on the right. Scale bars: 20 μm (a and c).
WT- and Hsp70-MEFs were generated, immortalized and maintained as described in the art. Human NPDA fibroblasts (83/24) originate from a skin biopsy of a patient with hepatosplenomegaly. Recombinant proteins were generated using the pET-16b vector system and Ni^2+-affinity-purification (Novagen), and labeled with Alexa Fluor 488 according to manufacturers protocol (Molecular Probes). To analyze the lysosomal integrity, we developed a real time imaging method of cells stained with acridine orange, a metachromatic weak base that accumulates in the acidic compartment of the cells staining them red and sensitizing them to photo-oxidation. The photo-oxidation-induced loss of the lysosomal pH-gradient and leakage of acridine orange to the cytosol from individual lysosomes was quantified visually as “loss of red dots” in U2-O—S cells and as a decrease in red and an increase in green fluorescence by Zeiss LSM DUO Software in fibroblasts. The total and cytoplasmic (digitonin-extracted) cathepsin activities were measured in digitonin-treated samples using zFR-AFC (Enzyme System Products) probe as described in the art. The tryptophan fluorescence spectra and liposome 90° light scattering were analyzed in a HEPES buffer (20 mM HEPES, 0.1 mM EDTA, pH as indicated) essentially as described in the art. Surface plasmon resonance measurements were performed with immobilized LUVs using a BIAcore 2000 system as described in the art. Hsp70 siRNA (5′-[…]-3′) and a […] were transfected with Oligofectamine (Invitrogen). Immunodetection was performed with standard protocols. Apoptosis-like cell death and lysosomal membrane permeabilization were analyzed essentially as described in the art. ASM activity was analyzed by Amplex Red Sphingomyelinase Assay Kit (A12220) from Molecular Probes with modifications described in the art. Statistical analysis was performed using a two-tailed, paired Student's T-test and all groups of data were tested for the comparability of their variances using an F-test.
Sub-confluent cells incubated with 2 μg/ml acridine orange for 15 min at 37° C. were washed, irradiated and analyzed in Hanks balanced salt solution complemented with 3% fetal calf serum. Cells for single cell imaging were selected from 8 pre-defined areas of each well in transmitted light-mode after which the same cells were immediately visualized and exposed to blue light from USH102 100W mercury arc burner (Ushio electric) installed in a U-ULS100HG housing (Olympus) for 20 sec. Fluorescence microscopy was performed on Olympus IX-70 inverted microscope with a LCPlanF1 ×20 objective with NA=0.40. […]

[5] = Surface plasmon resonance (BIAcore) BMP interaction; type: binding; details: acidic pH
Source text: Thus, we investigated the interaction of Hsp70 with palmitoyl-oleoyl-phosphatidylcholine (POPC) large unilamellar vesicles (LUVs) containing various membrane-associated anionic lipids, i.e. palmitoyl-oleoyl-phosphatidylserine (POPS; primarily in plasma membrane), cardiolipin (primarily mitochondrial) and BMP (primarily in late endosomes/lysosomes). Taking into account the increasingly acidic milieu of the endo-lysosomal compartment upon maturation to lysosomes, we compared the protein-lipid interactions in neutral (pH 7.4) and acidic (pH 6.0) conditions. […] As reported earlier for POPS, all negatively charged lipids enhanced the binding of rHsp70 to the liposomes at neutral pH approximately 4-fold irrespective of the charge density on the liposome surface (ranging from −1 to −2).
(§3) In order to investigate which part of the Hsp70 protein is responsible for the BMP binding, we measured the fluorescence shift of the tryptophans upon docking of rHsp70 and its mutants into BMP-containing liposomes. […] Next, we substituted the two tryptophans in Hsp70 with phenylalanines (W90F and W580F) and studied which tryptophan is responsible for the fluorescence shift induced by lipid binding. […] A more quantitative BIAcore analysis of the BMP—rHsp70 interaction confirmed that Hsp70 interacted with BMP mainly through its ATPase domain. […]

[6] = Tryptophan fluorescence shift upon docking into BMP-containing liposomes; type: binding
Source text: In order to investigate which part of the Hsp70 protein is responsible for the BMP binding, we measured the fluorescence shift of the tryptophans upon docking of rHsp70 and its mutants into BMP-containing liposomes. […] Next, we substituted the two tryptophans in Hsp70 with phenylalanines (W90F and W580F) and studied which tryptophan is responsible for the fluorescence shift induced by lipid binding. […] A more quantitative BIAcore analysis of the BMP—rHsp70 interaction confirmed that Hsp70 interacted with BMP mainly through its ATPase domain. […] Thus, the rHsp70-W90F mutant provided us with an invaluable tool to further test whether the direct interaction between Hsp70 and BMP endows Hsp70 with its lysosome protective attributes. […] Importantly, mutant Hsp70 proteins were endocytosed essentially as effectively as the wild type Hsp70.
The tryptophan fluorescence spectra (RFI) and liposome 90° light scattering (RSI) were analyzed in a HEPES buffer (20 mM HEPES, 0.1 mM EDTA, pH 7.4 or 6.0 as indicated) employing LUVs consisting of indicated lipids essentially as described in the art. For the RFI, LUVs were added in 10 μM aliquots and spectra recorded after a 20 min stabilization period. For the RSI, recombinant proteins were added in 0.12 nmol aliquots.

[7] = target: T1, Hsp70 chaperone (Homo sapiens, UniProt P0DMV8, W90F); experiment: Structural and functional aspects of the Hsp70 chaperone (circular dichroism, luciferase folding, ATP hydrolysis); type: biochemical; details: far- and near-UV circular dichroism
T1 construct: made in house
T1 sequence (P0DMV8 whole entry W90F): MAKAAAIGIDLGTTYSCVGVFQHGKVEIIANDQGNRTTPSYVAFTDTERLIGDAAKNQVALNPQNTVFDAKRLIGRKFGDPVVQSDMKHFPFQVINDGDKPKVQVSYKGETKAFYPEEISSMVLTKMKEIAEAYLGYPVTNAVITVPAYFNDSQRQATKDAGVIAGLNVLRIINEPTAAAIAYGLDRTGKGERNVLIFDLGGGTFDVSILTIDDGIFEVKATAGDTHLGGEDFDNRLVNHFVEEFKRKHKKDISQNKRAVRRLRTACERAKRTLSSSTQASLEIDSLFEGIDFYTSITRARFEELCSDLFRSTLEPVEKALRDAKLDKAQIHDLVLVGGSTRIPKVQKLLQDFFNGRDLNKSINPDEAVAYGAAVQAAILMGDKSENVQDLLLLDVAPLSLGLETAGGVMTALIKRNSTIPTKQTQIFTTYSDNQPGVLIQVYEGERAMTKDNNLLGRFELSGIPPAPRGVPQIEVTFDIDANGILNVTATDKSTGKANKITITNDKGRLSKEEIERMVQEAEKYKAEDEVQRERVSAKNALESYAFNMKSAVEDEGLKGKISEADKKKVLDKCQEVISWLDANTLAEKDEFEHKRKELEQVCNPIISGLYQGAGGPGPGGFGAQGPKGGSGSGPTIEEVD

[8] = tested on: cisplatin-induced lysosomal cell death; experiment: Cisplatin-induced lysosomal cell death; type: cell-based
Source text: Thus, we investigated the interaction of Hsp70 with palmitoyl-oleoyl-phosphatidylcholine (POPC) large unilamellar vesicles (LUVs) containing various membrane-associated anionic lipids, i.e. palmitoyl-oleoyl-phosphatidylserine (POPS; primarily in plasma membrane), cardiolipin (primarily mitochondrial) and BMP (primarily in late endosomes/lysosomes). Taking into account the increasingly acidic milieu of the endo-lysosomal compartment upon maturation to lysosomes, we compared the protein-lipid interactions in neutral (pH 7.4) and acidic (pH 6.0) conditions. […]
as §3
Cell density was assessed by the 3-(4,5-dimethylthiazole-2-y)-2,5-[…] (MTT, SIGMA-Aldrich) reduction assay essentially as described in the art. […] For each experiment a minimum of eight randomly chosen areas were counted.

[9] = tested on: ASM; experiment: ASM activity in NPDA patient cells; type: cell-based, Human; details: loading the lysosomes of patient cells
Source text: as §1
WT- and Hsp70-MEFs were generated, immortalized and maintained as described in the art. Human NPDA fibroblasts (83/24) originate from a skin biopsy of a patient with hepatosplenomegaly. […] The photo-oxidation-induced loss of the lysosomal pH-gradient and leakage of acridine orange to the cytosol from individual lysosomes was quantified visually as “loss of red dots” in U2-O—S cells and as a decrease in red and an increase in green fluorescence by Zeiss LSM DUO Software in fibroblasts. The total and cytoplasmic (digitonin-extracted) cathepsin activities were measured in digitonin-treated samples using zFR-AFC (Enzyme System Products) probe as described in the art. The tryptophan fluorescence spectra and liposome 90° light scattering were analyzed in a HEPES buffer (20 mM HEPES, 0.1 mM EDTA, pH as indicated) essentially as described in the art. […] Apoptosis-like cell death and lysosomal membrane permeabilization were analyzed essentially as described in the art. […]

[10] = tested on: NPDA cells; experiment: Lysosomal stability in NPDA cells; type: cell-based, Human
Experimental: as §1, §2

[11] = tested on: NPDA cells; experiment: Volume of the lysosomal compartment in NPDA cells; type: cell-based, Human
Source text: as §1
Primary antibodies used included mouse monoclonal antibodies against Hsp70 (2H9; kindly provided by Boris Margulis, Russian Academy of Sciences, St. Petersburg, Russia), glyceraldehyde-3-phosphate dehydrogenase (GAPDH; Biogenesis), BMP (6C4), lysosomal integral membrane protein-1 (H5C6; developed by J. Thomas August and James E. K. Hildreth and obtained from the Developmental Studies Hybridoma Bank developed under the auspices of the NICHD and maintained by The University of Iowa, Department of Biological Sciences, Iowa City, USA). Proteins separated by 10% SDS-PAGE and transferred to a nitrocellulose membrane were detected by using indicated primary antibodies, appropriate peroxidase-conjugated secondary antibodies from Dako, ECL Western blotting reagents (Amersham), and Luminescent Image Reader (LAS-1000Plus, Fujifilm). For immunocytochemistry Alexa […] or Alexa Fluor®-488-conjugated secondary antibodies were used. […] Fluorescence images were taken using a Zeiss Axiovert 100M laser scanning microscope. […]

CNCCCN1c2ccccc2CCc2ccccc21 [Desipramine, desipramine]
viability of MEFs [1]: reduced the viability of MEFs in a dose-dependent manner | permeabilization of lysosomes [2]: massive permeabilization of lysosomes | lysosomal stress resistance of Hsp70-MEFs upon photo-oxidation [3]: reverted the lysosomal stress resistance of Hsp70-MEFs to the level of WT-MEFs

Hsp70-2: recombinant Hsp70-2, 84% identical to the amino acid sequence of Hsp70
protection of lysosomes against photo-oxidation (lysosomal stabilization) [4]: no lysosomal stabilization

Hsc70: recombinant Hsc70, 86% identical to the amino acid sequence of Hsp70
protection of lysosomes against photo-oxidation (lysosomal stabilization) [4]: no lysosomal stabilization

rHsp70-W90F: rHsp70 mutant with tryptophan 90 substituted with phenylalanine
protection of lysosomes against photo-oxidation (lysosomal stabilization) [4]: completely lost its ability to protect | interaction with BMP (BIAcore) [5]: specifically abolished the interaction between rHsp70 and BMP | relative peak fluorescence intensity (tryptophan fluorescence shift) [6]: reduction of the signal | structural and functional aspects of the chaperone [7]: retaining the structural (folding as analyzed by far- and near-UV circular dichroism) and functional (luciferase folding and ATP hydrolysis) aspects | protection of cells against cisplatin-induced lysosomal cell death [8]: completely lost its ability to protect

rHsp70-W580F: rHsp70 mutant with tryptophan 580 substituted with phenylalanine
protection of lysosomes against photo-oxidation (lysosomal stabilization) [4]: same protective effect as the wild-type protein | protection of cells against cisplatin-induced lysosomal cell death [8]: same protective effect as the wild-type protein

B1: rASM: recombinant acid sphingomyelinase (protein, UniProt P17405 47-631, looked up)
Sphingomyelin …: LALSDSRVLWAPAEAHPLSPQGHPARLHRIVPRLRDVFGWGNLTCPICKGLFTAINLGLKKEPNVARVGSVAIKLCNLLKIAPPAVCQSIVHLFEDDMVEVWRRSVLSPSEACGLLLGSTCGHWDIFSSWNISLPTVPKPPPKPPSPPAPGAPVSRILFLTDLHWDHDYLEGTDPDCADPLCCRRGSGLPPASRPGAGYWGEYSKCDLPLRTLESLLSGLGPAGPFDMVYWTGDIPAHDVWHQTRQDQLRALTTVTALVRKFLGPVPVYPAVGNHESTPVNSFPPPFIEGNHSSRWLYEAMAKAWEPWLPAEALRTLRIGGFYALSPYPGLRLISLNMNFCSRENFWLLINSTDPAGQLQWLVGELQAAEDRGDKVHIIGHIPPGHCLKSWSWNYYRIVARYENTLAAQFFGHTHVDEFEVFYDEETLSRPLAVAFLAPSATTYIGLNPGYRVYQIDGNYSGSSHVVLDHETYILNLTQANIPGAIPHWQLLYRARETYGLPNTLPTAWHNLVYRMRGDMQLFQTFWFLYHKGHPPSEPCGTPCRLATLCAQLSARADSPALCRHLMPDGSLPEAQSLWPRPLFC
ASM activity in NPDA patient cells [9]: increased ASM activity | stabilization of lysosomes in NPDA cells [10]: stabilize the lysosomes | volume of the enlarged lysosomal compartment in NPDA cells [11]: normalize the volume
